Structures are written as SMILES.

From patent US9567319B2, “Compound having higher inhibitory activity on protein kinase G and preparation method thereof” (Jenkem Technology Co., Ltd., (Tianjin), priority 2014, dated 2017) come the findings set out here.

The data set in a line: Test of water solubility of the compounds. The settings on record: for Volume of added water: about 0.1 g sample, water added until dissolved; for solubility: water; for water solubility, times higher than that of compound 46: relative to compound 46 (parent compound).

A word on the solubility: it is the dissolved amount per volume that the medium holds. A low value points to a poorly soluble substance. For the molecule `COc1ccc(OCCOCCO)c(C(=O)c2ccc(C(=O)N[C@@H]3CNC[C@H]3NC(=O)c3ccc4cn[nH]c4c3)cc2)c1F.Cl` [JK-M02H, (3R,4R)-3-{4-[2-fluoro-3-methoxy-6-(5-hydroxy-3-oxapentan-1-oxy)]benzoyl}benzamido-4-(1H-indazole-6-carboxamido)pyrrolidine hydrochloride], for the setting “room temperature”, the “Volume of added water” value is recorded as 12.5 mL. For the same molecule, the solubility (thermodynamic from solid) was 8000 µg/mL.
As to `COCCOCCOCCOCCOCCOCCOCCOc1ccc(OC)c(F)c1C(=O)c1ccc(C(=O)N[C@@H]2CNC[C@H]2NC(=O)c2ccc3cn[nH]c3c2)cc1.Cl` [JK-M07M, (3R,4R)-3-{4-[2-fluoro-3-methoxy-6-(2,5,8,11,14,17,20-heptaoxadocosan-22-oxy)]benzoyl}benzamido-4-(1H-indazole-6-carboxamido)pyrrolidine hydrochloride], where the note is “room temperature”, the “Volume of added water” value stood at 7.5 mL and the solubility was determined as 13300 µg/mL.
On to `CCCOCCOCCOc1ccc(OC)c(F)c1C(=O)c1ccc(C(=O)N[C@@H]2CNC[C@H]2NC(=O)c2ccc3cn[nH]c3c2)cc1.Cl` [JK-M02P, (3R,4R)-3-{4-[2-fluoro-3-methoxy-6-(4,7-dioxanonan-9-oxy)]benzoyl}benzamido-4-(1H-indazole-6-carboxamido)pyrrolidine hydrochloride], for which, under “room temperature”, the “Volume of added water” value is recorded as 22.0 mL. For the setting “thermodynamic from solid”, this molecule showed a solubility of 4500 µg/mL.
For `CCCOCCOCCOc1ccc(F)c(F)c1C(=O)c1ccc(C(=O)N[C@@H]2CNC[C@H]2NC(=O)c2ccc3cn[nH]c3c2)cc1.Cl` [JK-02P, (3R,4R)-3-{4-[2,3-difluoro-6-(3,6-dioxanonan-1-oxy)]benzoyl}benzamido-4-(1H-indazole-6-carboxamido)pyrrolidine hydrochloride], the “water solubility, times higher than that of compound 46” value is “about 3 times”. The “Volume of added water” value (room temperature) is listed as 22.5 mL. Further, the solubility (thermodynamic from solid) turned out to be 4400 µg/mL.
For `COCCOCCOCCOc1ccc(F)c(F)c1C(=O)c1ccc(C(=O)N[C@@H]2CNC[C@H]2NC(=O)c2ccc3cn[nH]c3c2)cc1.Cl` [JK-03M, (3R,4R)-3-{4-[2,3-difluoro-6-(2,5,8-trioxadecan-10-oxy)]benzoyl}benzamido-4-(1H-indazole-6-carboxamido)pyrrolidine hydrochloride], the “water solubility, times higher than that of compound 46” value is recorded as “about 4 times”. Moreover, where the note is “room temperature”, the “Volume of added water” value stood at 16.5 mL and the solubility worked out at 6100 µg/mL.
